PubChem BioAssay AID743175 (Broad Institute, 2013)
Calls of active or inactive are those of the source. No rule for the calls is given here.

Test system: Mycobacterium tuberculosis non-replicating, growth inhibition plate reader
Assay: inhibitor activity on non-replicating M. tuberculosis, dose response, plate reader, dry powder (AID 743175)
Conditions: not given

SMILES | AC90
COc1ccccc1C#Cc1ccc([C@@H]2[C@@H](C#N)N(C(=O)C3CC3)[C@H]2CO)cc1 | > 26 µM (inactive)
COc1ccccc1C#Cc1ccc([C@H]2[C@@H](CO)N(C(=O)C3CC3)[C@H]2C#N)cc1 | > 26 µM (inactive)
COC(=O)COc1ccc2c(=O)c(Oc3ccccc3)c(C)oc2c1 | > 38 µM (inactive)
CCOC(=O)c1sc(NC(=O)CCN2CCOCC2)c(C(=O)OCC)c1C | > 38 µM (inactive)
c1ccc(Nc2nc(-c3ccccn3)cs2)cc1 | > 38 µM (inactive)
O=C(COc1c(Br)cc(Br)c2cccnc12)N1CCCCC1 | 6.33 µM
CCc1ccc(OCCCC(=O)NCc2ccco2)cc1 | > 38 µM (inactive)
CCOC(=O)COc1ccc2c(c1)C(=O)CC1(CCCCC1)O2 | > 38 µM (inactive)
COc1ccccc1C#Cc1ccc([C@H]2[C@H](C#N)N(C(=O)C3CC3)[C@H]2CO)cc1 | > 26 µM (inactive)
O=C(NCc1cccs1)c1ccc(Br)o1 | > 38 µM (inactive)
O=C(COc1cccc2ccccc12)Nc1nc2ccccc2[nH]1 | > 38 µM (inactive)
CCOC(=O)COc1ccc2c(=O)cc(-c3ccccc3)oc2c1 | > 38 µM (inactive)
Brc1c(-c2ccc3c(c2)OCO3)nc2ncccn12 | 32.3 µM
CCOCCOC(=O)COc1ccc2c(-c3ccccc3)cc(=O)oc2c1 | > 38 µM (inactive)
CCOC(=O)c1cc(-c2csc(COc3ccccc3)n2)on1 | > 38 µM (inactive)
NC1CCN(c2c(F)cc3c(=O)c(C(=O)O)cn(C4CC4)c3c2Cl)C1 (stereo not given) | 2.94 µM
CCOC(=O)COc1ccc2c(=O)c(-c3ccccc3)coc2c1 | > 38 µM (inactive)
CCOC(=O)COc1ccc(C(=O)NC2CCCCC2)cc1 | > 38 µM (inactive)
Cc1cccc(Cn2ccc(NC(=O)c3ccc4c(c3)OCO4)n2)c1 | 20 µM
O=C(Nc1nc2ccccc2[nH]1)c1cccc(Cl)c1 | 11.4 µM
Cc1nnc(NC(=O)c2ccc3ccccc3c2)o1 | 1.34 µM
COC(=O)COc1cccc(NC(=O)c2ccc(Cl)cc2)c1 | > 38 µM (inactive)
O=C(NC1CC2CCC1C2)C1COc2ccccc2O1 (stereo not given) | > 38 µM (inactive)
CCCCN(C/C=C/c1ccccc1OC)Cc1ccccc1 | > 38 µM (inactive)

Test system: not listed separately
Assay: as above
Conditions: Mycobacterium tuberculosis non-replicating, growth inhibition plate reader; at 26 µM (top of the series)

SMILES | activity change, negative = inhibition
COc1ccccc1C#Cc1ccc([C@H]2[C@@H](CO)N(C(=O)C3CC3)[C@H]2C#N)cc1 | -16.4% (inactive)
